pIC50: −log10 of the molar value.
What follows are molecules tested against T1, TLR9 (Homo sapiens, UniProt Q9NR96) (assay: huPBMC TLR9 Antagonist IFNα Assay). Settings: human PBMCs stimulated with ODN2216 0.3 μM, 14-16 hrs; IFNα2b AlphaLISA read-out.
T1 construct: Fresh blood was collected from normal human donors; endogenous in cells; host or cells: human PBMCs from fresh donor blood
T1 sequence (Q9NR96 26-1032): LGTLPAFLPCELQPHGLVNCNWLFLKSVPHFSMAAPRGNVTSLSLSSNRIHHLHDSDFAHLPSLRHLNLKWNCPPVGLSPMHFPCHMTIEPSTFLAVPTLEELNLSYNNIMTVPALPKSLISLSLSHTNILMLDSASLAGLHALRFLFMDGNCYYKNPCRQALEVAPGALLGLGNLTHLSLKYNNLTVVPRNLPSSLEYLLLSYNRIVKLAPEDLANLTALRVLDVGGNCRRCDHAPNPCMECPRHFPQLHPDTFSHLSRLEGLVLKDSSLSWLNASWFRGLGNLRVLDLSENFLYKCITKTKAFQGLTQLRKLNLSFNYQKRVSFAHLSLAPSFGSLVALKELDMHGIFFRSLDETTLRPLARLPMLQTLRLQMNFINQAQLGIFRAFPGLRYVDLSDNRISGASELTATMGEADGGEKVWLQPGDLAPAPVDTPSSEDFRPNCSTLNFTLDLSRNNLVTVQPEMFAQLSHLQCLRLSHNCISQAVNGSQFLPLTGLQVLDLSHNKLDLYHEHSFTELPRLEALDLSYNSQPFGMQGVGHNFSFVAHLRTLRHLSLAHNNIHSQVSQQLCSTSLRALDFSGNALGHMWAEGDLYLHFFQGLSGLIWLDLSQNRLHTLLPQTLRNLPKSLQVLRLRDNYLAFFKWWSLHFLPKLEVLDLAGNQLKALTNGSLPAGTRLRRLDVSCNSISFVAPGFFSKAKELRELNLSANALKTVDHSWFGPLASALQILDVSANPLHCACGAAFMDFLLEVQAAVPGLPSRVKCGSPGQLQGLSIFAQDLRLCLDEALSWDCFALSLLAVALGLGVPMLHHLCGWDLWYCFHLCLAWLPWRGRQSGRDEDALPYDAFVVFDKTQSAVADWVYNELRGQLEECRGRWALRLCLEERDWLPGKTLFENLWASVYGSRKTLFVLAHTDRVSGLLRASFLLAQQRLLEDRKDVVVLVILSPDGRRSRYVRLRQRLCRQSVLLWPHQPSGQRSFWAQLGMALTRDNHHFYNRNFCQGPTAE
Type: cell-based
Summary of the method: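 Human PBMCs from fresh donor blood (150,000 cells/well) stimulated 14–16 h at 37 °C with DOTAP-complexed ssRNA40 (final 1 μg/ml for TLR8, 10 μg/mL for TLR7) or ODN2216 (final 0.3 μM, TLR9), 0.25% DMSO, ten-point 1/3 compound dilutions. Supernatant IL-6 read by HTRF (TLR8); IFNα by IFNα2b AlphaLISA (TLR7/TLR9).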

| Compound | pIC50 |
| --- | --- |
| Cc1nn(CC23CCC(N)(CC2)CC3)c2c1CN(c1ccnc(-c3ccc(C#N)cc3)c1)CC2 [Compound No. 84, 4-(4-(1-((4-aminobicyclo[2.2.2]octan-1-yl)methyl)-3-methyl-6,7-dihydro-1H-pyrazolo[4,3-c]pyridin-5(4H)-yl)pyridin-2-yl)benzonitrile] | 5.74 |
| Cc1cc(N2CCc3c(c(C)nn3CC34CCC(O)(CC3)CC4)C2)c2cnn(C)c2n1 [compound 46, 4-((5-(1,6-dimethyl-1H-pyrazolo[3,4-b]pyridin-4-yl)-3-methyl-4,5,6,7-tetrahydro-1H-pyrazolo[4,3-c]pyridin-1-yl)methyl)bicyclo[2.2.2]octan-1-ol] | < 5.00 |
| Cc1cc(N2CCc3nn(CC45CC(N)(C4)C5)c(C)c3C2)c2cnn(C)c2n1 [compound 52, 3-((5-(1,6-dimethyl-1H-pyrazolo[3,4-b]pyridin-4-yl)-3-methyl-4,5,6,7-tetrahydro-2H-pyrazolo[4,3-c]pyridin-2-yl)methyl)bicyclo[1.1.1]pentan-1-amine] | 5.31 |
| Cc1cc(N2CCc3c(c(C)nn3CC34CCC(NC(C)C)(CC3)CC4)C2)c2cnn(C)c2n1 [compound 55, 4-((5-(1,6-dimethyl-1H-pyrazolo[3,4-b]pyridin-4-yl)-3-methyl-4,5,6,7-tetrahydro-1H-pyrazolo[4,3-c]pyridin-1-yl)methyl)-N-isopropylbicyclo[2.2.]octan-1-amine] | 5.98 |
| Cc1cc(N2CCc3c(c(C)nn3CC34CCC(N5C[C@@H](O)[C@@H](O)C5)(CC3)CC4)C2)c2cnn(C)c2n1 [compound 74, (3S,4R)-1-(4-((5-(1,6-dimethyl-1H-pyrazolo[3,4-b]pyridin-4-yl)-3-methyl-4,5,6,7-tetrahydro-1H-pyrazolo[4,3-c]pyridin-1-yl)methyl)bicyclo[2.2.2]octan-1-yl)pyrrolidine-3,4-diol] | 5.81 |
| Cc1cc(N2CCc3c(c(C)nn3CC34CCC(N5CC[C@H](O)C5)(CC3)CC4)C2)c2cnn(C)c2n1 [compound 75, (S)-1-(4-((5-(1,6-dimethyl-1H-pyrazolo[3,4-b]pyridin-4-yl)-3-methyl-4,5,6,7-tetrahydro-1H-pyrazolo[4,3-c]pyridin-1-yl)methyl)bicyclo[2.2.2]octan-1-yl)pyrrolidin-3-ol] | 6.02 |
| Cc1cc(N2CCc3c(c(C)nn3CC34CCC(N5CCCC5)(CC3)CC4)C2)c2ccncc2n1 [compound 86, 2-methyl-4-(3-methyl-1-((4-(pyrrolidin-1-yl)bicyclo[2.2.2]octan-1-yl)methyl)-6,7-dihydro-1H-pyrazolo[4,3-c]pyridin-5(4H)-yl)-1,7-naphthyridine] | 5.56 |

These reach a higher pIC50. Values come first.

| pIC50 | Compound |
| --- | --- |
| 6.09 | CCOCCN(CCOCC)C12CCC(Cn3nc(C)c4c3CCN(c3cc(C)nc5c3cnn5C)C4)(CC1)CC2 [compound 72, 4-((5-(1,6-dimethyl-1H-pyrazolo[3,4-b]pyridin-4-yl)-3-methyl-4,5,6,7-tetrahydro-1H-pyrazolo[4,3-c]pyridin-1-yl)methyl)-N,N-bis(2-ethoxyethyl)bicyclo[2.2.2]octan-1-amine] |
| 6.17 | Cc1cc(N2CCc3c(c(C)nn3CC34CCC(NC(C)CO)(CC3)CC4)C2)c2cnn(C)c2n1 (stereo not drawn) [compound 56, 2-((4-((5-(1,6-dimethyl-1H-pyrazolo[3,4-b]pyridin-4-yl)-3-methyl-4,5,6,7-tetrahydro-1H-pyrazolo[4,3-c]pyridin-1-yl)methyl)bicyclo[2.2.2]octan-1-yl)amino)propan-1-ol] |
| 6.24 | Cc1nn(CC23CCC(N4CCCC4)(CC2)CC3)c2c1CN(c1ccnc(-c3ccccc3)c1)CC2 [compound 85, 3-methyl-5-(2-phenylpyridin-4-yl)-1-((4-(pyrrolidin-1-yl)bicyclo[2.2.2]octan-1-yl)methyl)-4,5,6,7-tetrahydro-1H-pyrazolo[4,3-c]pyridine] |
| 6.30 | CCNC12CCC(Cn3nc(C)c4c3CCN(c3cc(C)nc5c3cnn5C)C4)(CC1)CC2 [compound 57, 4-((5-(1,6-dimethyl-1H-pyrazolo[3,4-b]pyridin-4-yl)-3-methyl-4,5,6,7-tetrahydro-1H-pyrazolo[4,3-c]pyridin-1-yl)methyl)-N-ethylbicyclo[2.2.]octan-1-amine] |
| 6.31 | Cc1cc(N2CCc3c(c(C)nn3CC34CCC(NC5CCC5)(CC3)CC4)C2)c2cnn(C)c2n1 [compound 54, N-cyclobutyl-4-((5-(1,6-dimethyl-1H-pyrazolo[3,4-b]pyridin-4-yl)-3-methyl-4,5,6,7-tetrahydro-1H-pyrazolo[4,3-c]pyridin-1-yl)methyl)bicyclo[2.2.2]octan-1-amine] |
| 6.31 | CCOCCNC12CCC(Cn3nc(C)c4c3CCN(c3cc(C)nc5c3cnn5C)C4)(CC1)CC2 [compound 71, 4-((5-(1,6-dimethyl-1H-pyrazolo[3,4-b]pyridin-4-yl)-3-methyl-4,5,6,7-tetrahydro-1H-pyrazolo[4,3-c]pyridin-1-yl)methyl)-N-(2-ethoxyethyl)bicyclo[2.2.2]octan-1-amine] |
| 6.35 | Cc1cc(N2CCc3c(c(C)nn3CC34CCC(N5CCC5)(CC3)CC4)C2)c2cnn(C)c2n1 [compound 64, 1-((4-(azetidin-1-yl)bicyclo[2.2.2]octan-1-yl)methyl)-5-(1,6-dimethyl-1H-pyrazolo[3,4-b]pyridin-4-yl)-3-methyl-4,5,6,7-tetrahydro-1H-pyrazolo[4,3-c]pyridine] |
| 6.60 | Cc1cc(N2CCc3c(c(C)nn3CC34CCC(N5C[C@H](O)[C@@H](O)C5)(CC3)CC4)C2)c2cnn(C)c2n1 [compound 80, (3S,4S)-1-(4-((5-(1,6-dimethyl-1H-pyrazolo[3,4-b]pyridin-4-yl)-3-methyl-4,5,6,7-tetrahydro-1H-pyrazolo[4,3-c]pyridin-1-yl)methyl)bicyclo[2.2.2]octan-1-yl)pyrrolidine-3,4-diol] |
| 6.67 | Cc1cc(N2CCc3c(c(C)nn3CCC34CCC(N)(CC3)CC4)C2)c2cnn(C)c2n1 [compound 91, 4-(2-(5-(1,6-dimethyl-1H-pyrazolo[3,4-b]pyridin-4-yl)-3-methyl-4,5,6,7-tetrahydro-1H-pyrazolo[4,3-c]pyridin-1-yl)ethyl)bicyclo[2.2.2]octan-1-amine] |
| 7.03 | Cc1cc(N2CCc3c(c(C)nn3CC34CCC(N)(CC3)CC4)C2)c2ccnc(C)c2n1 [compound 92, 4-((5-(2,8-dimethyl-1,7-naphthyridin-4-yl)-3-methyl-4,5,6,7-tetrahydro-1H-pyrazolo[4,3-c]pyridin-1-yl)methyl)bicyclo[2.2.2]octan-1-amine] |
| 7.19 | Cc1cc(N2CCc3c(c(C)nn3CC34CCC(N(C)C5CCC5)(CC3)CC4)C2)c2cnn(C)c2n1 [compound 79, N-cyclobutyl-4-((5-(1,6-dimethyl-1H-pyrazolo[3,4-b]pyridin-4-yl)-3-methyl-4,5,6,7-tetrahydro-1H-pyrazolo[4,3-c]pyridin-1-yl)methyl)-N-methylbicyclo[2.2.2]octan-1-amine] |

— patent publication US20240376099A1, “COMPOUNDS AND COMPOSITIONS AS INHIBITORS OF ENDOSOMAL TOLL-LIKE RECEPTORS” (Novartis AG, priority 2016, published 2024)
